Results reported in patent US11981658B2, “Substituted aminopyridine compounds as EGFR inhibitors” (YUHAN CORPORATION, priority 2021, dated 2024).
Read-outs that look alike come from different tables or passages of the source.

How the values were obtained:
EGFR L858R/T790M/C797S = EGFR L858R/T790M/C797S (Homo sapiens, UniProt P00533, C797S/L858R/T790M); assay: Biochemical EGFR kinase inhibition assay (Lance Ultra TR-FRET), triple mutant L858R/T790M/C797S
Outline: (§1)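 Enzyme reactions lasted 1 hour at room temperature with test compounds between 0.003 and 10 μM, followed by 10 mM EDTA quench.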

EGFR wildtype (WT) = EGFR wildtype (WT) (Homo sapiens, UniProt P00533); assay: Biochemical EGFR kinase inhibition assay (Lance Ultra TR-FRET), wildtype
EGFR wildtype (WT), sequence (P00533 25-1210): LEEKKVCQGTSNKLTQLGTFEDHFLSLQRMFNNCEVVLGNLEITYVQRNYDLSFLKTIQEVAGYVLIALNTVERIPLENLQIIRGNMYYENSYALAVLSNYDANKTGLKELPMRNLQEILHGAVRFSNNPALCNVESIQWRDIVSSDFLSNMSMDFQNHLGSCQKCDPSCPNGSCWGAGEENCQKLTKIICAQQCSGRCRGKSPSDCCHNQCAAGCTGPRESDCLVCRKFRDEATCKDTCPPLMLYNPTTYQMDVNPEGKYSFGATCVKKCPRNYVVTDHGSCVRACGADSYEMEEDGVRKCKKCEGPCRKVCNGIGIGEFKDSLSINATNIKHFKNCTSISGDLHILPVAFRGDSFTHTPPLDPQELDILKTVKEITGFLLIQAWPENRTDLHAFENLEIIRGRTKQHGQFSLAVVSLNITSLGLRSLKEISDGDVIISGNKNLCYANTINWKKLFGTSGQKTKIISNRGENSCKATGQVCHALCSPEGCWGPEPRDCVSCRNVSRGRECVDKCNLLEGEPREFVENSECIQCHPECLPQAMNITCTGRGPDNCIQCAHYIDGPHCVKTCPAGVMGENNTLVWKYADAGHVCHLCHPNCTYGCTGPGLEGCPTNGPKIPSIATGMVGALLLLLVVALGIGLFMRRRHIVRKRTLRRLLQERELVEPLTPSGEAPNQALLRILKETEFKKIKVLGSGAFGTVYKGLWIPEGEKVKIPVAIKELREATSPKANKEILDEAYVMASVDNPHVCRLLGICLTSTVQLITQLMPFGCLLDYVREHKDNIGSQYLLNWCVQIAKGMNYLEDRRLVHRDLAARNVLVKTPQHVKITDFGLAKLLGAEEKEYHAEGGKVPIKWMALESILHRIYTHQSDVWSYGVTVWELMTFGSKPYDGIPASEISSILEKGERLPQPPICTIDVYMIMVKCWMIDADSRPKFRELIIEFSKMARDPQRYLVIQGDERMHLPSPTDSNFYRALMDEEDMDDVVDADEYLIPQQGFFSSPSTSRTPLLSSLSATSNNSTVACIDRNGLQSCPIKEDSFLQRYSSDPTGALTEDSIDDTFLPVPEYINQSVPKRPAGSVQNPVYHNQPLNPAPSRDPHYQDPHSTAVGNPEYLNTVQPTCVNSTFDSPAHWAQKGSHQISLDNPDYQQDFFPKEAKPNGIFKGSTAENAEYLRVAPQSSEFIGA
Outline: as §1

EGFR Del19/C797S = EGFR Del19/C797S (Homo sapiens, UniProt P00533, C797S/DEL746-750); assay: Biochemical EGFR kinase inhibition assay (Lance Ultra TR-FRET), double mutant del19/C797S
EGFR Del19/C797S, sequence (P00533 with tags, fused parts or gaps DEL746-750/C797S): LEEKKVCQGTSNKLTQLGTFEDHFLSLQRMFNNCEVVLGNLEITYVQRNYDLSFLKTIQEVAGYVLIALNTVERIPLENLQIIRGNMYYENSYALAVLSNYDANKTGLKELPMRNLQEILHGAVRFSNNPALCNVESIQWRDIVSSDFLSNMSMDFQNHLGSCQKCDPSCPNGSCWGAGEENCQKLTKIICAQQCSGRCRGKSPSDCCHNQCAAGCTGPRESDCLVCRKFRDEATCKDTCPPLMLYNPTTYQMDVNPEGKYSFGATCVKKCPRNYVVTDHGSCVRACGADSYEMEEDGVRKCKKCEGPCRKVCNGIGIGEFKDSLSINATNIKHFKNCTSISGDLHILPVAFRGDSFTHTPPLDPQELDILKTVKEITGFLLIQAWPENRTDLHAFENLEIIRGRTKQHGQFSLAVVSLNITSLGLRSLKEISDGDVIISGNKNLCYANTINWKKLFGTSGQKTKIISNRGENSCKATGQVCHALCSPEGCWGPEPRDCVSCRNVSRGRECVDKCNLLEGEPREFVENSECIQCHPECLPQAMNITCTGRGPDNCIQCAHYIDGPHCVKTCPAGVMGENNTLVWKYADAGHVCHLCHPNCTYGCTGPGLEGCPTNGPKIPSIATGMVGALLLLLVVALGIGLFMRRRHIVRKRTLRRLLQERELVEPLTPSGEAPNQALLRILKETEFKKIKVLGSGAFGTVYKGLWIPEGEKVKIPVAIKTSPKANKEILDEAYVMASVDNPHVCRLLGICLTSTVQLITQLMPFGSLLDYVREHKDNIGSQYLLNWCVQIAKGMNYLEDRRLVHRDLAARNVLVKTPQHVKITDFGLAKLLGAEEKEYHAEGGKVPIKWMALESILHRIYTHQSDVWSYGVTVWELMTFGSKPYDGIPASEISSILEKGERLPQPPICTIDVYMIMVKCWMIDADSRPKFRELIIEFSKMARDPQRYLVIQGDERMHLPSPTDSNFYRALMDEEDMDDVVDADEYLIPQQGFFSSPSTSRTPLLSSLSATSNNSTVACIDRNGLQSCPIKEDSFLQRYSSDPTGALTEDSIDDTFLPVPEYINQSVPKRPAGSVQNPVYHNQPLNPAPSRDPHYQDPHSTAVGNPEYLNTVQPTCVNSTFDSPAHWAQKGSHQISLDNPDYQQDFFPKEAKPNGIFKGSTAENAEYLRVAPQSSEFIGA
Outline: as §1

EGFR Del19/T790M/C797S = EGFR Del19/T790M/C797S (Homo sapiens, UniProt P00533, C797S/DEL746-750/T790M); assay: Biochemical EGFR kinase inhibition assay (Lance Ultra TR-FRET), triple mutant del19/T790M/C797S
EGFR Del19/T790M/C797S, sequence (P00533 with tags, fused parts or gaps DEL746-750/T790M/C797S): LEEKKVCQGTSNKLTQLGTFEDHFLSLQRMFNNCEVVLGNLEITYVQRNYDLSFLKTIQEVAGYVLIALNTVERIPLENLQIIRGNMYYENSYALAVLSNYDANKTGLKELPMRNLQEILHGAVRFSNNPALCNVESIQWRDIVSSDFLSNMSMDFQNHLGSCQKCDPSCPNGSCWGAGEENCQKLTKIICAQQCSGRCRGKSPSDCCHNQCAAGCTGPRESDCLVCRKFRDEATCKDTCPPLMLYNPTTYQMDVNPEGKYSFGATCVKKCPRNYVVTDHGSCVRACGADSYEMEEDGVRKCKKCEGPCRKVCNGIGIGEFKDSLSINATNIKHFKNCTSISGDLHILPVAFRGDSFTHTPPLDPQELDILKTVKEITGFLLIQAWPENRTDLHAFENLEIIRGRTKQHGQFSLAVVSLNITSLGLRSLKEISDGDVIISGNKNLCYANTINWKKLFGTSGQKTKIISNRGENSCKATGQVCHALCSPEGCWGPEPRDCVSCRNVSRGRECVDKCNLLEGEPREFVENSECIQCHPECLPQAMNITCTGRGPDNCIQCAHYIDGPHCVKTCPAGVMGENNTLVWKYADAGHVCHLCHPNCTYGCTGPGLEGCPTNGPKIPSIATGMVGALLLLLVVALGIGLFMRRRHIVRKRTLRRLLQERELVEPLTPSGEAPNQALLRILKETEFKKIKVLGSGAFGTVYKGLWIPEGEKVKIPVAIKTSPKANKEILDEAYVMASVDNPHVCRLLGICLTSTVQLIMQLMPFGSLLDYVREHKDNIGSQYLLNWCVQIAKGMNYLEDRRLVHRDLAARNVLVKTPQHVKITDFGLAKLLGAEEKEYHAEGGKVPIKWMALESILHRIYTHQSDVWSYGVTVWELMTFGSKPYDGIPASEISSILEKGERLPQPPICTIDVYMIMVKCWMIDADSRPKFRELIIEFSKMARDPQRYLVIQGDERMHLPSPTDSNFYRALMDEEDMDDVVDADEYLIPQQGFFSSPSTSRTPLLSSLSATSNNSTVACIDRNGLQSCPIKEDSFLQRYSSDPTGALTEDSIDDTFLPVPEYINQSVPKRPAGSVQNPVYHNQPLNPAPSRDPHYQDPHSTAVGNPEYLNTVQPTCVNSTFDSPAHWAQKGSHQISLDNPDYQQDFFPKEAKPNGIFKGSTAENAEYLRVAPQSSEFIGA
Outline: as §1

EGFR L858R/C797S = EGFR L858R/C797S (Homo sapiens, UniProt P00533, C797S/L858R); assay: Biochemical EGFR kinase inhibition assay (Lance Ultra TR-FRET), double mutant L858R/C797S
Outline: as §1

[1] = IC50 L858R/T790M/C797S (nM), 100 μM ATP
[2] = IC50 Del19/C797S (nM), 100 μM ATP
[3] = IC50 Del19/T790M/C797S (nM), 100 μM ATP
[4] = IC50 L858R/C797S (nM), 100 μM ATP
[5] = Km ATP, read-out: IC50 L858R/T790M/C797S (nM), Km ATP
[6] = Km ATP, read-out: IC50 WT (nM), Km ATP
[7] = Km ATP, read-out: IC50 Del19/C797S (nM), Km ATP
[8] = Km ATP, read-out: IC50 Del19/T790M/C797S (nM), Km ATP
[9] = Km ATP, read-out: IC50 L858R/C797S (nM), Km ATP
[10] = Km ATP, read-out: IC50 L858R/T790M/C797S (nM) Km ATP
[11] = Km ATP, read-out: IC50 WT (nM) Km ATP
[12] = Km ATP, read-out: IC50 Del19/C797S (nM) Km ATP
[13] = Km ATP, read-out: IC50 Del19/T790M/C797S (nM) Km ATP
[14] = Km ATP, read-out: IC50 L858R/C797S (nM) Km ATP
[15] = ATP at Km, read-out: IC50 WT (nM), Km ATP

EGFR L858R/T790M/C797S, sequence (P00533 25-1210 T790M/C797S/L858R): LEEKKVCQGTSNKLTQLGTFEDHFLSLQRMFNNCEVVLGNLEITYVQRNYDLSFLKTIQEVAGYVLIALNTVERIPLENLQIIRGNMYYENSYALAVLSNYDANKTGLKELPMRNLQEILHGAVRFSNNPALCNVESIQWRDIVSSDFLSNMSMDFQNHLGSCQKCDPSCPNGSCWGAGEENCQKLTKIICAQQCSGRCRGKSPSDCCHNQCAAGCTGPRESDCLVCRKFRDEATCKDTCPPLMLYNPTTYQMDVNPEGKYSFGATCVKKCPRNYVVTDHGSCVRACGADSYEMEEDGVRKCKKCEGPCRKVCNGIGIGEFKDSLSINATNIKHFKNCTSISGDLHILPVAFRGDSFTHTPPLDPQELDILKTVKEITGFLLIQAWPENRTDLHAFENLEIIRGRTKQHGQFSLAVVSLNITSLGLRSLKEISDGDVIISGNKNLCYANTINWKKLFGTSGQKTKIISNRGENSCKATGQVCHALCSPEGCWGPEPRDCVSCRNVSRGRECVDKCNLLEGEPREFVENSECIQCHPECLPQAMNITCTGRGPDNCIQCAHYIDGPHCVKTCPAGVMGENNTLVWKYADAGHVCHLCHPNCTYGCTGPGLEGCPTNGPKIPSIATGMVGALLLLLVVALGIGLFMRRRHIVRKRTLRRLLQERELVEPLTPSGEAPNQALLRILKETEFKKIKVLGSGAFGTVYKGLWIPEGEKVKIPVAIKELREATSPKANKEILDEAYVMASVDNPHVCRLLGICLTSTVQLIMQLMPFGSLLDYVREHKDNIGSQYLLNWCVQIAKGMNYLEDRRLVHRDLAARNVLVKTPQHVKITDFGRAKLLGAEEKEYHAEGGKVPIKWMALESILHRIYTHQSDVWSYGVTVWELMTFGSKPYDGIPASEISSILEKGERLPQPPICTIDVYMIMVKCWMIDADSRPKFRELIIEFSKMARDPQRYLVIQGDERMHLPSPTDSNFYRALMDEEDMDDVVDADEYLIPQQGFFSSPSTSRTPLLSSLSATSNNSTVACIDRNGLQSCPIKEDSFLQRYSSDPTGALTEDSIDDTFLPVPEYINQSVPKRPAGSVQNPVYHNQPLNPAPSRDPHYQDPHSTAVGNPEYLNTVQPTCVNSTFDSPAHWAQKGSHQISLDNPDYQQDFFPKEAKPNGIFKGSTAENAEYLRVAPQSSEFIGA

| SMILES | IC50 (EGFR L858R/T790M/C797S; [1]) [nM] | IC50 (EGFR wildtype (WT); IC50 WT (nM), 100 μM ATP) [nM] | IC50 (EGFR Del19/C797S; [2]) [nM] | IC50 (EGFR Del19/T790M/C797S; [3]) [nM] | IC50 (EGFR L858R/C797S; [4]) [nM] | IC50 (EGFR L858R/T790M/C797S; [5]) [nM] | IC50 (EGFR wildtype (WT); [6]) [nM] | IC50 (EGFR Del19/C797S; [7]) [nM] | IC50 (EGFR Del19/T790M/C797S; [8]) [nM] | IC50 (EGFR L858R/C797S; [9]) [nM] | IC50 (EGFR L858R/T790M/C797S; [10]) [nM] | IC50 (EGFR wildtype (WT); [11]) [nM] | IC50 (EGFR Del19/C797S; [12]) [nM] | IC50 (EGFR Del19/T790M/C797S; [13]) [nM] | IC50 (EGFR L858R/C797S; [14]) [nM] | IC50 (EGFR L858R/T790M/C797S; ATP at Km, read-out: IC50 L858R/T790M/C797S (nM), Km ATP) [nM] | IC50 (EGFR wildtype (WT); [15]) [nM] | IC50 (EGFR Del19/C797S; ATP at Km, read-out: IC50 Del19/C797S (nM), Km ATP) [nM] | IC50 (EGFR Del19/T790M/C797S; ATP at Km, read-out: IC50 Del19/T790M/C797S (nM), Km ATP) [nM] | IC50 (EGFR L858R/C797S; ATP at Km, read-out: IC50 L858R/C797S (nM), Km ATP) [nM] |
| --- | --- | --- | --- | --- | --- | --- | --- | --- | --- | --- | --- | --- | --- | --- | --- | --- | --- | --- | --- | --- |
| C[C@H](CCO)Nc1cc(Nc2ccnc(-c3cnn(S(=O)(=O)C4CC4)c3)n2)ncc1C#Cc1cnn(C)c1 [Example 4, (R)-3-((2-((2-(1-(Cyclopropylsulfonyl)-1H-pyrazol-4-yl)pyrimidin-4-yl)amino)-5-((1-methyl-1H-pyrazol-4-yl)ethynyl)pyridin-4-yl)amino)butan-1-ol] | 12.6 | > 10000 | 38.6 | 1.1 | 103 | – | – | – | – | – | – | – | – | – | – | – | – | – | – | – |
| CN1CCC(C#Cc2cnc(Nc3ccnc(-c4cnn(S(=O)(=O)C5CC5)c4)n3)cc2N2CCC3(CCCO3)CC2)C1 (stereo not drawn) [Example 372, 2-(1-(Cyclopropylsulfonyl)-1H-pyrazol-4-yl)-N-(5-((1-methylpyrrolidin-3-yl)ethynyl)-4-(1-oxa-8-azaspiro[4.5]decan-8-yl)pyridin-2-yl)pyrimidin-4-amine] | 0.3 | 5110 | 1.6 | 0.3 | 22.9 | 0.1 | 5.5 | 0.8 | 0.2 | 1 | – | – | – | – | – | – | – | – | – | – |
| CS(=O)(=O)N1CCC(C#Cc2cnc(Nc3ccnc(-c4cnn(S(=O)(=O)C5CC5)c4)n3)cc2NCC2CCC(CO)CC2)C1 (stereo not drawn) [Example 400, ((1r,4r)-4-(((2-((2-(1-(Cyclopropylsulfonyl)-1H-pyrazol-4-yl)pyrimidin-4-yl)amino)-5-((1-(methylsulfonyl)pyrrolidin-3-yl)ethynyl)pyridin-4-yl)amino)methyl)cyclohexyl)methanol] | 22.5 | > 10000 | 35.6 | 19.3 | 1570 | 26.1 | 310 | 12.8 | 34 | 17.9 | – | – | – | – | – | – | – | – | – | – |
| Cn1ccc(C#Cc2cnc(Nc3ccnc(-c4cnn(S(=O)(=O)C5CC5)c4)n3)cc2N2CCC(NCCF)CC2)n1 [Example 141, 2-(1-(Cyclopropylsulfonyl)-1H-pyrazol-4-yl)-N-(4-(4-((2-fluoroethyl)amino)piperidin-1-yl)-5-((1-methyl-1H-pyrazol-3-yl)ethynyl)pyridin-2-yl)pyrimidin-4-amine] | 3.4 | > 10000 | 49.1 | 0.9 | 1900 | – | – | – | – | – | 0.7 | 256 | 48.7 | 0.7 | 13.7 | – | – | – | – | – |
| CC1(CO)CCN(c2cc(Nc3ccnc(-c4cnn(S(=O)(=O)C5CC5)c4)n3)ncc2C#CC2(O)CCCOC2)CC1 (stereo not drawn) [Example 357, 3-((6-((2-(1-(Cyclopropylsulfonyl)-1H-pyrazol-4-yl)pyrimidin-4-yl)amino)-4-(4-(hydroxymethyl)-4-methylpiperidin-1-yl)pyridin-3-yl)ethynyl)tetrahydro-2H-pyran-3-ol] | 0.4 | 4710 | 1.5 | 0.3 | 14 | 0.1 | 9.2 | 1.4 | 0.2 | 1.5 | – | – | – | – | – | – | – | – | – | – |
| CC(C)(O)C1CCN(c2cc(Nc3ccnc(-c4cnn(S(=O)(=O)C5CC5)c4)n3)ncc2C#Cc2cnn(C(F)(F)F)c2)CC1 [Example 329, 2-(1-(2-((2-(1-(Cyclopropylsulfonyl)-1H-pyrazol-4-yl)pyrimidin-4-yl)amino)-5-((1-(trifluoromethyl)-1H-pyrazol-4-yl)ethynyl)pyridin-4-yl)piperidin-4-yl)propan-2-ol] | 3 | > 10000 | 1080 | 5.9 | 125 | – | – | – | – | – | – | – | – | – | – | 1.7 | 700 | 81.8 | 21.2 | 47.6 |
| CC1(CO)CCN(c2cc(Nc3ccnc(-c4cnn(S(=O)(=O)C5CC5)c4)n3)ncc2C#Cc2cnn(CC(F)F)c2)CC1 [Example 49, (1-(2-((2-(1-(Cyclopropylsulfonyl)-1H-pyrazol-4-yl)pyrimidin-4-yl)amino)-5-((1-(2,2-difluoroethyl)-1H-pyrazol-4-yl)ethynyl)pyridin-4-yl)-4-methylpiperidin-4-yl)methanol] | 2.9 | 1260 | 0.9 | 1.8 | 7.2 | – | – | – | – | – | 1.1 | 14.3 | 2.1 | 1.8 | 2.8 | – | – | – | – | – |
| C[C@]1(O)CC[C@H](CNc2cc(Nc3ccnc(-c4cnn(S(=O)(=O)C5CC5)c4)n3)ncc2C#Cc2cnn(CCF)c2)CC1 [Example 380, (1 r,4r)-4-(((2-((2-(1-(Cyclopropylsulfonyl)-1H-pyrazol-4-yl)pyrimidin-4-yl)amino)-5-((1-(2-fluoroethyl)-1H-pyrazol-4-yl)ethynyl)pyridin-4-yl)amino)methyl)-1-methylcyclohexan-1-ol] | 5.4 | > 10000 | 58.7 | 1.5 | 1170 | 2.6 | 114 | 32.5 | 2.4 | 32.6 | – | – | – | – | – | – | – | – | – | – |
| CC(O)C1CCN(c2cc(Nc3ccnc(-c4cnn(S(=O)(=O)C5CC5)c4)n3)ncc2C#Cc2cnn(C)c2)CC1 (stereo not drawn) [Example 10, 1-(1-(2-((2-(1-(Cyclopropylsulfonyl)-1H-pyrazol-4-yl)pyrimidin-4-yl)amino)-5-((1-methyl-1H-pyrazol-4-yl)ethynyl)pyridin-4-yl)piperidin-4-yl)ethan-1-ol] | 0.7 | > 10000 | 4.4 | 0.9 | 12.9 | – | – | – | – | – | 0.5 | 31.9 | 3 | 1.1 | 2.8 | – | – | – | – | – |
| O=C(N1CCC(C#Cc2cnc(Nc3ccnc(-c4cnn(S(=O)(=O)C5CC5)c4)n3)cc2NCC2CCC(O)CC2)C1)C(F)(F)F (stereo not drawn) [Example 409, 1-(3-((6-((2-(1-(Cyclopropylsulfonyl)-1H-pyrazol-4-yl)pyrimidin-4-yl)amino)-4-((((1 r,4r)-4-hydroxycyclohexyl)methyl)amino)pyridin-3-yl)ethynyl)pyrrolidin-1-yl)-2,2,2-trifluoroethan-1-one] | 10.5 | > 10000 | 81.3 | 4.3 | 648 | – | – | – | – | – | – | – | – | – | – | – | – | – | – | – |
| CC1(CO)CCN(c2cc(Nc3ccnc(-c4ccc(F)nc4)n3)ncc2C#Cc2cnn(C(F)(F)F)c2)CC1 [Example 269, (1-(2-((2-(6-Fluoropyridin-3-yl)pyrimidin-4-yl)amino)-5-((1-(trifluoromethyl)-1H-pyrazol-4-yl)ethynyl)pyridin-4-yl)-4-methylpiperidin-4-yl)methanol] | 160 | > 10000 | 1950 | 129 | 1350 | – | – | – | – | – | – | – | – | – | – | – | > 10000 | – | – | – |
